For 18 compounds, IC50 and melting point results are on record in patent US6982348B2, “Aminoethanol derivatives” (Takeda Pharmaceutical Company Limited, priority 2001, dated 2006).

The IC50 is the concentration at which inhibition is half-maximal. Lower therefore signals higher potency. For orientation: melting point means the temperature, or range, at which the solid turns liquid.

In series [1] the target is T1, human CETP (Homo sapiens, UniProt P11597).
T1 sequence (P11597 18-493): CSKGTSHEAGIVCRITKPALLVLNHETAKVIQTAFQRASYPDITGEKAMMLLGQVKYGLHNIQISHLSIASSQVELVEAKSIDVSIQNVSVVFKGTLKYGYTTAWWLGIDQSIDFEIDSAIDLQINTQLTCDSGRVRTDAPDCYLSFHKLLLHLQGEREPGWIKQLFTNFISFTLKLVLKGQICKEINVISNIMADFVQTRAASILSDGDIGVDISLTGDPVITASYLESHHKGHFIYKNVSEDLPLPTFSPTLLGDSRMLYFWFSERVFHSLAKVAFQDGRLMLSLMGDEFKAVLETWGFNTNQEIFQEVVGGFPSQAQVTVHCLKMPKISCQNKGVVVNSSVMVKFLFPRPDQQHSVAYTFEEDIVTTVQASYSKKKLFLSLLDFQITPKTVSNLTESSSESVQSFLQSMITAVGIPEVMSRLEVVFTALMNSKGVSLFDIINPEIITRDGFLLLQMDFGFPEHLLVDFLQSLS
The series is described as follows: Assay of cholesteryl ester transfer protein inhibitory activity, standard measurement system. The format is biochemical. The conditions noted are these: BODIPY-CE-ME donor, VLDL-LDL acceptor, reaction at 37° C. for 30 min. The protocol: (§1) Assay of Cholesteryl Ester Transfer Protein Inhibitory Activity
(§2) Fresh rabbit serum was adjusted with KBr to the density of (1.063 g/ml), and the fractions (VLDL-LDL, density<1.063 g/ml) floated by ultra-centrifugation operation (SW41—Ti, 40,000 rpm, 18 hrs., 4° C., Beckman model L8-55) were collected, subjected to dialysis against 0.15 M NaCl-10 mM Tris-HCl, pH 7.4 (TBS), sterilized by filtration through a filter and preserved at 4° C.
(§3) A solution of BODIPY-CE (0.6 mg) in chloroform was added to egg PC (phosphatidylcholine) ([…]) and triolein (2 mg), and after dissolution, the lipid was air dried under a nitrogen gas reflux and the solvent was removed under high vacuum. To this lipid was added an apo HDL solution (7.5 ml) obtained by defatting human HDL (1.063<d<1.21) with chloroform-methanol (2:1, v/v), dissolving in 6 M urea-containing TBS and dialyzing against TBS, and the mixture was subjected to sonication (BRANSON SONIFIRE CELL DISRUPTOR 200, dial 6, 5 min×4) to give BOBIPY-CE-ME. After centrifugation (CENTRIPREP 10), it was sterilized by filtration through a filter and preserved at 4° C.
The test compound (20% DMSO solution, 5 μl), TS (75 μl), acceptor lipoprotein (VLDL-LDL, 20 μl) and partially purified human CETP (25 μl) were mixed and incubated at 37° C. for 30 min. BODIPY-CE-ME (25 μl) was added (total 150 μl) and a transfer reaction was started. After reaction at 37° C. for 30 min., fluorescence intensity was measured at Ex. 490 nm/Em. 530 nm. The CETP inhibitory activity (% inhibition) was calculated by the following formula. [formula] 4) 50% Human Plasma-Containing Measurement System
(§4) The IC50 value was determined as a concentration showing 50% inhibition by plotting the logarithm of the concentration of test compound and % inhibition.

Series [2] concerns the target T1, human CETP. The series can be described thus: Assay of cholesteryl ester transfer protein inhibitory activity, 50% human plasma-containing measurement system. The format is biochemical. The note with it: BODIPY-CE-ME donor, VLDL-LDL acceptor, reaction at 37° C. for 60 min. On the procedure: as §1, §2, §3
The test compound (20% DMSO solution, 5 μl), human plasma (75 μl), acceptor lipoprotein (VLDL-LDL, 20 μl) and partially purified human CETP (25 μl) were mixed and incubated at 37° C. for 30 min. BODIPY-CE-ME (25 μl) was added (total 150 μl) and a transfer reaction was started. After reaction at 37° C. for 60 min., fluorescence intensity was measured at Ex. 490 nm/Em. 530 nm. The CETP inhibitory activity (% inhibition) was calculated by the following formula. [formula]
as §4

`O=C(N[C@H](Cc1ccc(C(F)(F)F)cc1)[C@@H](O)c1ccc(F)cc1)c1cccc2c1C=CCCC2` (racemic) [Example 29, N-[(1RS,2SR)-2-(4-fluorophenyl)-2-hydroxy-1-[4-(trifluoromethyl)benzyl]ethyl]-6,7-dihydro-5H-benzo[a]cycloheptene-1-carboxamide] displayed a melting point of 197 to 198 °C. For the same compound, at human CETP [1], the IC50 stood at 0.12 µM. As to `O=C(N[C@H](Cc1ccc(C(F)(F)F)cc1)[C@@H](O)c1cccc(F)c1)c1cccc2c1C=CCCC2` (racemic) [Example 177, N-((1RS,2SR)-2-(3-fluorophenyl)-2-hydroxy-1-((4-(trifluoromethyl)phenyl)methyl)ethyl)-6,7-dihydro-5H-benzo[a]cycloheptene-1-carboxamide], the melting point lay within 151 to 152 °C. This compound also registered a half-maximal inhibitory concentration (IC50) against human CETP [1] of 0.091 µM.

On to `O=C(N[C@H](Cc1ccc(C(F)(F)F)cc1)[C@@H](O)c1ccc(Oc2ccccc2)cc1)c1cccc2c1C=CCCC2` (racemic) [Example 210, N-((1RS,2SR)-2-hydroxy-2-(4-phenoxyphenyl)-1-((4-(trifluoromethyl)phenyl)methyl)ethyl)-6,7-dihydro-5H-benzo[a]cycloheptene-1-carboxamide], for which the IC50 on human CETP [2] stood at 1.4 µM; at human CETP [1], 0.088 µM. Taken in the same sequence, the figures for `O=C(N[C@H](Cc1cccc(OC(F)(F)C(F)F)c1)[C@@H](O)c1ccc(Oc2ccccc2)cc1)c1cccc2c1C=CCCC2` (racemic) [Example 217, N-((1RS,2SR)-2-hydroxy-2-(4-(phenyloxy)phenyl)-1-((3-((1,1,2,2-tetrafluoroethyl)oxy)phenyl)methyl)ethyl)-6,7-dihydro-5H-benzo[a]cycloheptene-1-carboxamide] were 0.08 µM and 0.0084 µM.

In the case of `O=C(N[C@H](Cc1cccc(OC(F)(F)C(F)F)c1)[C@@H](O)c1cccc(F)n1)c1cccc2c1C=CCCC2` (racemic) [Example 222, N-((1RS,2RS)-2-(6-fluoropyridin-2-yl)-2-hydroxy-1-((3-(1,1,2,2-tetrafluoroethoxy)phenyl)methyl)ethyl)-6,7-dihydro-5H-benzo[a]cycloheptene-1-carboxamide], the melting point fell in the range of 151 to 152 °C. On human CETP [1], the IC50 is 0.079 µM. The compound `CC(C)(C)OC(=O)N[C@H](Cc1ccc(CC(F)(F)C(F)(F)F)cc1)[C@@H](O)c1cccc(Cl)c1` (racemic) [Example 372, tert-butyl (1RS,2SR)-2-(3-chlorophenyl)-2-hydroxy-1-[4-(2,2,3,3,3-pentafluoropropyl)benzyl]ethylcarbamate] had a melting point of 156 to 157 °C. `O=C(N[C@H](Cc1ccc(CC(F)(F)C(F)(F)F)cc1)[C@@H](O)c1cccc(Cl)c1)c1ccc(F)c2ccccc12` (racemic) [Example 373, N-[(1RS,2SR)-1-[4-(2,2,3,3,3-pentafluoropropyl)benzyl]-2-(3-chlorophenyl)-2-hydroxyethyl]-4-fluoro-1-naphthamide]: the melting point was in the range of 191 to 192 °C. On the same count and under the same terms, then `O=C(N[C@H](Cc1ccc(CC(F)(F)C(F)(F)F)cc1)[C@@H](O)c1cccc(Cl)c1)c1cccc2c1C=CCCC2` (racemic) [Example 374, N-[(1RS,2SR)-1-[4-(2,2,3,3,3-pentafluoropropyl)benzyl]-2-(3-chlorophenyl)-2-hydroxyethyl]-6,7-dihydro-5H-benzo[a]cycloheptene-1-carboxamide], with 176 to 177 °C; and `O=C(N[C@H](Cc1ccc(CC(F)(F)C(F)(F)F)cc1)[C@@H](O)c1cccc(Cl)c1)c1cccc2c(Cl)cccc12` (racemic) [Example 375, 5-chloro-N-{(1RS,2SR)-2-(3-chlorophenyl)-2-hydroxy-1-[4-(2,2,3,3,3-pentafluoropropyl)benzyl]ethyl}-1-naphthamide], with 216 to 217 °C; and `CC1(C)COc2ccc(C[C@@H](NC(=O)c3cccc4c3C=CCCC4)[C@@H](O)c3cccc(Cl)c3)cc21` (racemic) [Example 377, N-{(1RS,2SR)-2-(3-chlorophenyl)-1-[(3,3-dimethyl-2,3-dihydro-1-benzofuran-5-yl)methyl]-2-hydroxyethyl}-6,7-dihydro-5H-benzo[a]cycloheptene-1-carboxamide], with 149 to 150 °C. The compound `CC1(C)COc2ccc(C[C@@H](NC(=O)c3cccc4c(Cl)cccc34)[C@@H](O)c3cccc(Cl)c3)cc21` (racemic) [Example 378, 5-chloro-N-{(1RS,2SR)-2-(3-chlorophenyl)-1-[(3,3-dimethyl-2,3-dihydro-1-benzofuran-5-yl)methyl]-2-hydroxyethyl}-1-naphthamide] had a melting point of 191 to 192 °C.

For the compound `CC(C)(C)C(F)(F)c1ccc(C[C@@H](NC(=O)c2ccc(F)c3ccccc23)[C@@H](O)c2cccc(Cl)c2)cc1` (racemic) [Example 379, N-{(1RS,2SR)-2-(3-chlorophenyl)-1-[4-(1,1-difluoro-2,2-dimethylpropyl)benzyl]-2-hydroxyethyl}-4-fluoro-1-naphthamide], the melting point fell in the range of 104 to 106 °C. `CC(C)(C)C(F)(F)c1ccc(C[C@@H](NC(=O)c2cccc3c2C=CCCC3)[C@@H](O)c2cccc(Cl)c2)cc1` (racemic) [Example 380, N-{(1RS,2SR)-2-(3-chlorophenyl)-1-[4-(1,1-difluoro-2,2-dimethylpropyl)benzyl]-2-hydroxyethyl}-6,7-dihydro-5H-benzo[a]cycloheptene-1-carboxamide] returned a melting point of 119 to 120 °C. Take `CC(C)(C)C(F)(F)c1ccc(C[C@@H](NC(=O)c2cccc3c(Cl)cccc23)[C@@H](O)c2cccc(Cl)c2)cc1` (racemic) [Example 381, 5-chloro-N-{(1RS,2SR)-2-(3-chlorophenyl)-1-[4-(1,1-difluoro-2,2-dimethylpropyl)benzyl]-2-hydroxyethyl}-1-naphthamide]: the melting point was 99 to 101 °C. On to `CC(=O)O[C@H](c1ccc(F)cc1)[C@H](Cc1cccc(OC(F)(F)C(F)F)c1)NC(=O)c1cccc2c1C=CCCC2` (racemic) [Example 382, (1RS,2SR)-2-[(6,7-dihydro-5H-benzo[a]cyclohepten-1-ylcarbonyl)amino]-1-(4-fluorophenyl)-3-[3-(1,1,2,2-tetrafluoroethoxy)phenyl]propyl acetate], for which the melting point lay in the range of 176 to 177 °C.

`CC(C)(C)OC(=O)NCC(=O)O[C@H](c1ccc(F)cc1)[C@H](Cc1cccc(OC(F)(F)C(F)F)c1)NC(=O)c1cccc2c1C=CCCC2` (racemic) [Example 386, N-(tert-butoxycarbonyl)glycine (1RS,2SR)-2-[(6,7-dihydro-5H-benzo[a]cyclohepten-1-ylcarbonyl)amino]-1-(4-fluorophenyl)-3-[3-(1,1,2,2-tetrafluoroethoxy)phenyl]propyl ester]: the melting point was 151 to 152 °C.

`CC(C)(C)OC(=O)NCC(=O)O[C@H](c1ccc(F)cc1)[C@H](Cc1cccc(OC(F)(F)C(F)F)c1)NC(=O)c1ccc(F)c2ccccc12` (racemic) [Example 390, N-(tert-butoxycarbonyl)glycine (1RS,2SR)-2-[(4-fluoro-1-naphthoyl)amino]-1-(4-fluorophenyl)-3-[3-(1,1,2,2-tetrafluoroethoxy)phenyl]propyl ester] registered a melting point of 126 to 127 °C.

`O=C(N[C@@H](Cc1ccc(C(F)(F)F)cc1)[C@H](O)c1ccc(F)cc1)c1ccc(C(F)F)c2ccccc12` [Example 64, 4-(difluoromethyl)-N-((1S,2R)-2-(4-fluorophenyl)-2-hydroxy-1-((4-(trifluoromethyl)phenyl)methyl)ethyl)-1-naphthalenecarboxamide] showed a melting point of 212 to 213 °C.
